The values below come from paper PMC8825798 (Communications Biology, 2022).

Test [1] has as its target αCOPI-WD40 domain (residues 1-327) (Schizosaccharomyces pombe, UniProt Q96WV5, F197K/I192K/L181K/L185K/L196K). In words: biochemical. Format: binding.
Test [2] concerns the target T1, sarbecovirus spike hepta-peptide, wild type (1267Gly-Val-Lys-Leu-His-Tyr-Thr1273) (SARS-CoV-2).
T1 peptide: GVKLHYT
In words: BLI. Conditions: both partners purified.

Several values for one entry are separate records, joined by “and”; a condition that tells them apart may be missing. Identical values can stand only once. Peptide text beside a SMILES is read from it.

One may read the Kd as the concentration at which binding is half-saturated. The koff is the first-order rate constant of dissociation. Read a low koff as slow dissociation. For orientation: kon means the second-order rate constant of association. A lower kon goes with slow association. The molecule `CC(C)C[C@H](NC(=O)[C@H](CCCCN)NC(=O)[C@@H](NC(=O)CN)C(C)C)C(=O)N[C@@H](Cc1c[nH]cn1)C(=O)N[C@@H](C)C(=O)N[C@H](C(=O)O)[C@@H](C)O` [GVKLHAT] (H-GVKLHAT-OH) yielded a Kd in test [1] (Equilibrium KD) of 3770 ± 340 nM. In addition, in test [1] (Kinetic KD), the Kd came out at 2320 ± 70 nM. Further, in test [1] (pH 6.5), the koff was found to be 0.28 ± 0.003 s⁻¹ and the kon was 120.87 ± 3.39 10^3/Ms.

In test [1] (Equilibrium KD), `CC(C)C[C@H](NC(=O)[C@H](CCCCN)NC(=O)[C@@H](NC(=O)CN)C(C)C)C(=O)N[C@@H](Cc1c[nH]cn1)C(=O)N[C@@H](Cc1ccc(O)cc1)C(=O)N[C@@H](C)C(=O)O` [GVKLHYA] (H-GVKLHYA-OH) showed a Kd of 1130 ± 50 nM. The molecule further showed a Kd in test [1] (Kinetic KD) of 1140 ± 20 nM. Also, in test [1] (pH 6.5), the koff is 0.076 ± 0.001 s⁻¹ and the kon was 66.67 ± 0.80 10^3/Ms.

`CC(C)C[C@H](NC(=O)[C@H](CCCCN)NC(=O)[C@@H](NC(=O)CN)C(C)C)C(=O)N[C@@H](Cc1c[nH]cn1)C(=O)N[C@@H](Cc1ccc(O)cc1)C(=O)N[C@@H](CCC(=O)O)C(=O)O` [GVKLHYE] (H-GVKLHYE-OH) displayed a Kd in test [1] (Equilibrium KD) of 310 ± 10 nM. The molecule further registered a Kd in test [1] (Kinetic KD) of 380 ± 10 nM. In addition, in test [1] (pH 6.5), the koff came to 0.024 ± 0.0003 s⁻¹ and the on-rate constant (kon) is reported as 58.96 ± 0.54 10^3/Ms.

`CC(C)C[C@H](NC(=O)[C@H](CCCCN)NC(=O)[C@@H](NC(=O)CN)C(C)C)C(=O)N[C@@H](Cc1c[nH]cn1)C(=O)N[C@@H](Cc1ccc(O)cc1)C(=O)N[C@@H](CCC(N)=O)C(=O)O` [GVKLHYQ] (H-GVKLHYQ-OH): the affinity in test [1] (Equilibrium KD), expressed as Kd, was 780 ± 40 nM. The molecule further showed a Kd in test [1] (Kinetic KD) of 1150 ± 10 nM. Further, in test [1] (pH 6.5), the koff was determined as 0.066 ± 0.001 s⁻¹ and the kon is 60.05 ± 0.75 10^3/Ms.

Turning to `CC(C)C[C@H](NC(=O)[C@H](CCCCN)NC(=O)[C@@H](NC(=O)CN)C(C)C)C(=O)N[C@@H](Cc1c[nH]cn1)C(=O)N[C@@H](Cc1ccc(O)cc1)C(=O)N[C@@H](CCCNC(=N)N)C(=O)O` [GVKLHYR] (H-GVKLHYR-OH), the Kd in test [1] (Equilibrium KD) worked out at 1730 ± 240 nM; in test [1] (Kinetic KD) it was 1290 ± 40 nM. In test [1] (pH 6.5), this molecule came in with a koff of 0.177 ± 0.001 s⁻¹.

As to `CC(C)C[C@H](NC(=O)[C@H](CCCCN)NC(=O)[C@@H](NC(=O)CN)C(C)C)C(=O)N[C@@H](Cc1c[nH]cn1)C(=O)N[C@@H](Cc1ccc(O)cc1)C(=O)N[C@H](C(=O)O)[C@@H](C)O` [GVKLHYT] (H-GVKLHYT-OH), the Kd in test [1] (Equilibrium KD) was 4170 nM and 1400 nM; in test [1] (Kinetic KD), 2750 nM and 950 nM. The koff in test [1] (pH 6.5) amounted to 0.145 ± 0.001 s⁻¹; in test [1] (pH 7.5), 0.25 ± 0.003 s⁻¹. The kon in test [1] (pH 6.5) is 152.13 ± 3.45 10^3/Ms; in test [1] (pH 7.5), 89.96 ± 2.72 10^3/Ms.

In turn, `CC(C)C[C@H](NC(=O)[C@H](CCCCN)NC(=O)[C@@H](NC(=O)CN)C(C)C)C(=O)N[C@@H](Cc1c[nH]cn1)C(=O)N[C@@H](Cc1ccc(O)cc1)C(=O)N[C@H](C(=O)O)C(C)C` [GVKLHYV] (H-GVKLHYV-OH) came in with a Kd in test [1] (Equilibrium KD) of 3200 ± 40 nM. Also, the Kd in test [1] (Kinetic KD) worked out at 2060 ± 50 nM. In test [1] (pH 6.5), the koff was determined as 0.212 ± 0.002 s⁻¹ and the kon is recorded as 102.67 ± 2.61 10^3/Ms.

Consider `CC(C)C[C@H](NC(=O)[C@H](CCCCN)NC(=O)[C@@H](NC(=O)CN)C(C)C)C(=O)N[C@@H](CCCCN)C(=O)N[C@@H](Cc1ccc(O)cc1)C(=O)N[C@H](C(=O)O)[C@@H](C)O` [GVKLKYT] (H-GVKLKYT-OH), for which, in test [1] (Kinetic KD), the Kd amounted to 2710 nM. Also, in test [1] (pH 7.5), the koff came to 0.184 s⁻¹ and the kon is given as 67.3 ± 1.45 10^3/Ms.

With GVALAYT, the “Binding to αCOPI-WD40 (in words)” value in test [1] (pH 6.5) is “does not demonstrate any substantial binding”.

Regarding GVALHYT, the “Binding to αCOPI-WD40 (in words)” value in test [1] (pH 6.5) is on record as “abolished binding”.

GVKLAYT: the “Binding to αCOPI-WD40 (in words)” value in test [1] (pH 6.5) is recorded as “abolished binding”.

KEVYLHG: in test [1] (pH 6.5), the “Binding to αCOPI-WD40 (in words)” value is reported as “weak binding”.

Turning to VLKTYHG, the “Binding to αCOPI-WD40 (in words)” value in test [1] (pH 7.5) is given as “no detectable interaction”.

B1: αCOPI-WD40 domain (residues 1-327) from Schizosaccharomyces pombe (domain or fragment)
chain: MEMLTKFESRSSRAKGVAFHPTQPWILTSLHNGRIQLWDYRMGTLLDRFDGHDGPVRGIAFHPTQPLFVSGGDDYKVNVWNYKSRKLLFSLCGHMDYVRVCTFHHEYPWILSCSDDQTIRIWNWQSRNCIAILTGHSHYVMCAAFHPSEDLIVSASLDQTVRVWDISGLRMKNAAPVSMSKEDQKAQAHNSKSNDKKGSTDAIVKFVLEGHDRGVNWCAFHPTLPLILSAGDDRLVKLWRMTASKAWEVDTCRGHFNNVSCCLFHPHQELILSASEDKTIRVWDLNRRTAVQTFRRDNDRFWFITVHPKLNLFAAAHDSGVMVFKLE
As for B1, in test [2], the koff was 0.145 s⁻¹ and 0.25 s⁻¹; the kon is 152000 M⁻¹ s⁻¹ and 90000 M⁻¹ s⁻¹.
